{"source": "patent US20240358693A1", "about": "“METHODS OF TREATING PAIN” (Aisa Pharma, Inc., priority 2023, published 2024)", "system": "participants with Raynaud's Phenomenon secondary mostly to systemic sclerosis (SSc-RP)", "assay": "Frequency of weekly symptomatic RP attacks (patient diary), Phase 2a study Part A", "type": "in vivo, human", "protocol": "A randomized, placebo-controlled phase 2a study was performed and is in progress to assess the safety and efficacy of cilnidipine (10 mg and 20 mg) alone and in combination with 5 mg tadalafil, in participants with diagnosis of scleroderma and/or secondary Raynaud's disease.\nThe relevant metrics measured by this tool daily are: • Study medication • SSc-RP symptoms (Reporting an attack including duration of attack) • Severity of the attack considering all symptoms of the attack e.g., tingling, numbness, pain, color changes (VAS 0-10 cm scale) • Participant's location at the time of the attack (inside home/outside home) • Selecting symptoms experienced during the attack (tingling, numbness, pain, color changes, other) • Pain rating during the attack (11-point Likert scale) • The RCS based on how much difficulty participants had with Raynaud's today, how many attacks the participant had, and how long they lasted. Participants will also be asked to consider how much pain, numbness, or other symptoms the Raynaud's caused in fingers (including painful sores), and how much the Raynaud's alone affected the use of hands today (VAS 0-10 cm scale).\nPercent change from baseline evaluation for frequency of weekly RP attacks were or will be used as the primary efficacy variable. The sponsor-developed participant-informed diary will be used to record data. Frequency of weekly RP attacks is defined as the total number of RP attacks divided by the number of days with available diary data within the last 7 days of each dosing period then multiplied by 7. Total number of RP attacks during the last 7 days of screening period divided by the number of days with available data then multiplied by 7 will be used as baseline for the analysis of all periods. The variable will be calculated as follows:\nPercentage change={(weekly RP attacks for the last 7 days of each dosing period−Baseline weekly RP attacks)/Baseline weekly RP attacks}*100%.\nAbsolute change=weekly RP attacks for the last 7 days of each dosing period−Baseline weekly RP attacks\nPercent change from baseline evaluation for frequency of weekly RP attacks was and will be the primary efficacy endpoint. Frequency of weekly RP attacks is defined as the total number of RP attacks divided by the number of days with available diary data within the last 7 days of each dosing period then multiplied by 7. Total number of RP attacks during the last 7 days of screening period divided by the number of days with available data then multiplied by 7 will be used as baseline for the analysis of all periods.\nThe following data was actually obtained in accordance with the protocol and plan delineated in Examples 1 and 2. The accompanying data involved 11 patients out of the planned 76 patient study. The study was done in patients with scleroderma (systemic sclerosis) who had relatively frequent Raynaud symptoms as they needed to average at least one attack per day during a screening period of up to two weeks. In this first phase of this double-blind placebo-controlled, prospective randomized study, patients were treated in parallel and after meeting study criteria were randomized to receive either placebo, cilnidipine 10 mg daily, cilnidipine 20 mg daily, tadalafil 5 mg daily, cilnidipine 10 mg plus 5 mg of tadalafil, or cilnidipine 20 mg plus 5 mg of tadalafil.", "key": {"[1]": {"conditions": "Pooled Cilnidipine 20 mg and Cilnidipine 20 mg + Tadalafil 5 mg, n 4, Excluding Outliers, ITT Part A"}, "[2]": {"conditions": "Pooled Cilnidipine (N = 3), ITT Part A"}, "[3]": {"conditions": "Pooled Cilnidipine, n 3, Excluding Outliers, ITT Part A"}, "[4]": {"conditions": "Pooled Cilnidipine, n 3, by Baseline RCS, 1st block (RCS <5.0), ITT Part A"}, "[5]": {"conditions": "all cilnidipine and cilnidipine plus tadalafil treated patients (n=7)"}, "[6]": {"conditions": "excluding outliers, by baseline RCS, first subgroup, cilnidipine 10 mg, tadalafil 5 mg daily"}, "[7]": {"conditions": "excluding outliers, by baseline RCS, first subgroup, cilnidipine 20 mg, tadalafil 5 mg daily"}, "[8]": {"conditions": "excluding outliers, by baseline RCS, first subgroup, pooled cilnidipine 10 mg and 20 mg, tadalafil 5 mg daily"}}}
{"smiles": "COCCOC(=O)C1=C(C)NC(C)=C(C(=O)OC/C=C/c2ccccc2)C1c1cccc([N+](=O)[O-])c1", "note": "(centres unmarked) [Cilnidipine, cilnidipine]", "values": [{"measurement": "Weekly Symptomatic RP Attacks Change from Baseline, Median", "setting": "[1]", "result": "−3.50"}, {"measurement": "Weekly Symptomatic RP Attacks Percent Change from Baseline, Mean (SD)", "setting": "[1]", "result": "−25.00 (14.410) %"}, {"measurement": "Weekly Symptomatic RP Attacks Percent Change from Baseline, Median", "setting": "[1]", "result": "−28.17", "unit": "%"}, {"measurement": "Weekly Symptomatic RP Attacks, Mean (SD)", "setting": "[1]", "result": "9.75 (3.403)"}, {"measurement": "Weekly Symptomatic RP Attacks, Median", "setting": "[1]", "result": 10.50}, {"measurement": "Weekly Symptomatic RP Attacks Change from Baseline, Mean", "setting": "[2]", "result": "−5.33"}, {"measurement": "Weekly Symptomatic RP Attacks Change from Baseline, Median", "setting": "[2]", "result": "−7.00"}, {"measurement": "Weekly Symptomatic RP Attacks Percent Change from Baseline, Mean", "setting": "[2]", "result": "−33.60", "unit": "%"}, {"measurement": "Weekly Symptomatic RP Attacks Percent Change from Baseline, Median", "setting": "[2]", "result": "−33.33", "unit": "%"}, {"measurement": "Weekly Symptomatic RP Attacks, Mean", "setting": "[2]", "result": 10.00}, {"measurement": "Weekly Symptomatic RP Attacks, Median", "setting": "[2]", "result": 11.00}, {"measurement": "Weekly Symptomatic RP Attacks Change from Baseline, Mean (SD)", "setting": "[3]", "result": "−5.33 (2.887)"}, {"measurement": "Weekly Symptomatic RP Attacks Change from Baseline, Median", "setting": "[3]", "result": "−7.00"}, {"measurement": "Weekly Symptomatic RP Attacks Percent Change from Baseline, Mean (SD)", "setting": "[3]", "result": "−33.60 (5.164) %"}, {"measurement": "Weekly Symptomatic RP Attacks Percent Change from Baseline, Median", "setting": "[3]", "result": "−33.33", "unit": "%"}, {"measurement": "Weekly Symptomatic RP Attacks, Mean (SD)", "setting": "[3]", "result": "10.00 (4.583)"}, {"measurement": "Weekly Symptomatic RP Attacks, Median", "setting": "[3]", "result": 11.00}, {"measurement": "Weekly Symptomatic RP Attacks Change from Baseline, Mean (SD)", "setting": "[4]", "result": "−5.33 (2.887)"}, {"measurement": "Weekly Symptomatic RP Attacks Change from Baseline, Median", "setting": "[4]", "result": "−7.00"}, {"measurement": "Weekly Symptomatic RP Attacks Percent Change from Baseline, Mean (SD)", "setting": "[4]", "result": "−33.60 (5.164) %"}, {"measurement": "Weekly Symptomatic RP Attacks Percent Change from Baseline, Median", "setting": "[4]", "result": "−33.33", "unit": "%"}, {"measurement": "Weekly Symptomatic RP Attacks, Mean (SD)", "setting": "[4]", "result": "10.00 (4.583)"}, {"measurement": "Weekly Symptomatic RP Attacks, Median", "setting": "[4]", "result": 11.00}, {"measurement": "patients in whom the average frequency of Raynaud's attacks decreased more than 25%", "setting": "[5]", "result": "6 of 7"}, {"measurement": "weekly frequency of Raynaud attacks, direction of change", "setting": "[5]", "result": "decrease"}, {"measurement": "reduction in the weekly frequency of attacks, range", "setting": "baseline RCS <5.0, all cilnidipine and cilnidipine plus tadalafil treated patients (n=5)", "result": "28%-44%"}, {"measurement": "Weekly Symptomatic RP Attacks Change from Baseline, Max", "setting": "[6]", "result": "−7.0, −7.0"}, {"measurement": "Weekly Symptomatic RP Attacks Change from Baseline, Mean (SD)", "setting": "[6]", "result": "−7.00"}, {"measurement": "Weekly Symptomatic RP Attacks Change from Baseline, Median", "setting": "[6]", "result": "−7.00"}, {"measurement": "Weekly Symptomatic RP Attacks Change from Baseline, Min", "setting": "[6]", "result": "−7.0, −7.0"}, {"measurement": "Weekly Symptomatic RP Attacks Change from Baseline, Q1", "setting": "[6]", "result": "−7.00, −7.00"}, {"measurement": "Weekly Symptomatic RP Attacks Change from Baseline, Q3", "setting": "[6]", "result": "−7.00, −7.00"}, {"measurement": "Weekly Symptomatic RP Attacks Percent Change from Baseline, Max", "setting": "[6]", "result": "−33.3, −33.3%"}, {"measurement": "Weekly Symptomatic RP Attacks Percent Change from Baseline, Mean (SD)", "setting": "[6]", "result": "−33.33", "unit": "%"}, {"measurement": "Weekly Symptomatic RP Attacks Percent Change from Baseline, Median", "setting": "[6]", "result": "−33.33", "unit": "%"}, {"measurement": "Weekly Symptomatic RP Attacks Percent Change from Baseline, Min", "setting": "[6]", "result": "−33.3, −33.3%"}, {"measurement": "Weekly Symptomatic RP Attacks Percent Change from Baseline, Q1", "setting": "[6]", "result": "−33.33, −33.33%"}, {"measurement": "Weekly Symptomatic RP Attacks Percent Change from Baseline, Q3", "setting": "[6]", "result": "−33.33, −33.33%"}, {"measurement": "Weekly Symptomatic RP Attacks, Max", "setting": "[6]", "result": "14.0, 14.0"}, {"measurement": "Weekly Symptomatic RP Attacks, Mean (SD)", "setting": "[6]", "result": 14.00}, {"measurement": "Weekly Symptomatic RP Attacks, Median", "setting": "[6]", "result": 14.00}, {"measurement": "Weekly Symptomatic RP Attacks, Min", "setting": "[6]", "result": "14.0, 14.0"}, {"measurement": "Weekly Symptomatic RP Attacks, Q1", "setting": "[6]", "result": "14.00, 14.00"}, {"measurement": "Weekly Symptomatic RP Attacks, Q3", "setting": "[6]", "result": "14.00, 14.00"}, {"measurement": "Weekly Symptomatic RP Attacks Change from Baseline, Max", "setting": "[7]", "result": "−2.0"}, {"measurement": "Weekly Symptomatic RP Attacks Change from Baseline, Mean (SD)", "setting": "[7]", "result": "−4.50 (3.536)"}, {"measurement": "Weekly Symptomatic RP Attacks Change from Baseline, Median", "setting": "[7]", "result": "−4.50"}, {"measurement": "Weekly Symptomatic RP Attacks Change from Baseline, Min", "setting": "[7]", "result": "−7.0"}, {"measurement": "Weekly Symptomatic RP Attacks Change from Baseline, Q1", "setting": "[7]", "result": "−7.00"}, {"measurement": "Weekly Symptomatic RP Attacks Change from Baseline, Q3", "setting": "[7]", "result": "−2.00"}, {"measurement": "Weekly Symptomatic RP Attacks Percent Change from Baseline, Max", "setting": "[7]", "result": "−28.6", "unit": "%"}, {"measurement": "Weekly Symptomatic RP Attacks Percent Change from Baseline, Mean (SD)", "setting": "[7]", "result": "−33.73 (7.296) Percent"}, {"measurement": "Weekly Symptomatic RP Attacks Percent Change from Baseline, Median", "setting": "[7]", "result": "−33.73", "unit": "%"}, {"measurement": "Weekly Symptomatic RP Attacks Percent Change from Baseline, Min", "setting": "[7]", "result": "−38.9", "unit": "%"}, {"measurement": "Weekly Symptomatic RP Attacks Percent Change from Baseline, Q1", "setting": "[7]", "result": "−38.89", "unit": "%"}, {"measurement": "Weekly Symptomatic RP Attacks Percent Change from Baseline, Q3", "setting": "[7]", "result": "−28.57", "unit": "%"}, {"measurement": "Weekly Symptomatic RP Attacks, Max", "setting": "[7]", "result": 11.0}, {"measurement": "Weekly Symptomatic RP Attacks, Mean (SD)", "setting": "[7]", "result": "8.00 (4.243)"}, {"measurement": "Weekly Symptomatic RP Attacks, Median", "setting": "[7]", "result": 8.00}, {"measurement": "Weekly Symptomatic RP Attacks, Min", "setting": "[7]", "result": 5.0}, {"measurement": "Weekly Symptomatic RP Attacks, Q1", "setting": "[7]", "result": 5.00}, {"measurement": "Weekly Symptomatic RP Attacks, Q3", "setting": "[7]", "result": 11.00}, {"measurement": "Weekly Symptomatic RP Attacks Change from Baseline, Max", "setting": "[8]", "result": "−2.0"}, {"measurement": "Weekly Symptomatic RP Attacks Change from Baseline, Mean (SD)", "setting": "[8]", "result": "−5.33 (2.887)"}, {"measurement": "Weekly Symptomatic RP Attacks Change from Baseline, Median", "setting": "[8]", "result": "−7.00"}, {"measurement": "Weekly Symptomatic RP Attacks Change from Baseline, Min", "setting": "[8]", "result": "−7.0"}, {"measurement": "Weekly Symptomatic RP Attacks Change from Baseline, Q1", "setting": "[8]", "result": "−7.00"}, {"measurement": "Weekly Symptomatic RP Attacks Change from Baseline, Q3", "setting": "[8]", "result": "−2.00"}, {"measurement": "Weekly Symptomatic RP Attacks Percent Change from Baseline, Max", "setting": "[8]", "result": "−28.6", "unit": "%"}, {"measurement": "Weekly Symptomatic RP Attacks Percent Change from Baseline, Mean (SD)", "setting": "[8]", "result": "−33.60 (5.164) Percent"}, {"measurement": "Weekly Symptomatic RP Attacks Percent Change from Baseline, Median", "setting": "[8]", "result": "−33.33", "unit": "%"}, {"measurement": "Weekly Symptomatic RP Attacks Percent Change from Baseline, Min", "setting": "[8]", "result": "−38.9", "unit": "%"}, {"measurement": "Weekly Symptomatic RP Attacks Percent Change from Baseline, Q1", "setting": "[8]", "result": "−38.89", "unit": "%"}, {"measurement": "Weekly Symptomatic RP Attacks Percent Change from Baseline, Q3", "setting": "[8]", "result": "−28.57", "unit": "%"}, {"measurement": "Weekly Symptomatic RP Attacks, Max", "setting": "[8]", "result": 14.0}, {"measurement": "Weekly Symptomatic RP Attacks, Mean (SD)", "setting": "[8]", "result": "10.00 (4.583)"}, {"measurement": "Weekly Symptomatic RP Attacks, Median", "setting": "[8]", "result": 11.00}, {"measurement": "Weekly Symptomatic RP Attacks, Min", "setting": "[8]", "result": 5.0}, {"measurement": "Weekly Symptomatic RP Attacks, Q1", "setting": "[8]", "result": 5.00}, {"measurement": "Weekly Symptomatic RP Attacks, Q3", "setting": "[8]", "result": 14.00}]}
